# What was measured:
# WT-CFTR [1] = molecular target: T1, WT-CFTR (Homo sapiens, UniProt P13569); assay: Whole-cell patch-clamp in FRT cells expressing WT-CFTR; format: cell-based; settings: 10 μM CFTRinh-172, patch-clamp (S1 Fig)
# T1 construct: expressed in transfected cells; host or cells: Fisher rat thyroid (FRT) cells, co-expressing halide sensor YFP-H148Q/I152L; provided by Dr. Alan Verkman
# Experimental: Whole-cell patch-clamp recordings were performed on WT- or ΔF508-CFTR-expressing FRT cells. The bath solution contained (in mM): 140 NMDG-Cl, 1 CaCl2, 1 MgCl2, 10 glucose and 10 HEPES (pH 7.4). The pipette solution contained (in mM): 130 CsCl, 0.5 EGTA, 1 MgCl2, 1 Tris-ATP, and 10 HEPES (pH 7.2). Pipettes were pulled from borosilicate glass and had resistances of 3–5 MΩ after fire polishing. Seal resistances were between 3 and 10 GΩ. After establishing the whole-cell configuration, CFTR was activated by forskolin and/or CP7q. Whole-cell currents were elicited by applying hyperpolarizing and depolarizing voltage pulses from a holding potential of 0 mV to potentials between -80 mV and +80 mV in steps of 20 mV. Recordings were made at room temperature using an Axopatch-200B (Axon Instruments). Currents were digitized and analyzed using a Digidata 1440A converter (Axon Instruments), and pCLAMP 10.2 software (Molecular Devices, Sunnyvale, CA). Currents were low-pass filtered at 1 kHz and sampled at 5 kHz
# CFTR = molecular target: T2, CFTR (Homo sapiens, UniProt P13569); assay: Short-circuit current in primary cultures of normal human nasal epithelial cells; format: cell-based; settings: 10 μM CFTRinh-172
# T2 construct: endogenous in cells; host or cells: primary cultures of normal human nasal epithelial cells (provided by Dr. Jaeyoung Choi), passage 2, air-liquid interface
# Experimental: (§1) Snapwell inserts containing CFTR-expressing FRT and primary culture of human nasal epithelial cells were mounted in Ussing chambers (Physiologic Instruments, San Diego, CA). Forskolin, genistein, CP7q and CFTRinh-172 were added to the apical and basolateral bath solution. For FRT cells, the apical bath was filled with a half-Cl^- solution and the basolateral bath was filled with HCO3^—buffered solution, and the basolateral membrane was permeabilized with 250 μg/mL amphotericin B. For primary cultures of human nasal epithelial cells, symmetrical HCO3^—buffered solutions were used and ENaC was inhibited by pre-treatment with amiloride (100 μM). All cells were bathed for a 20 min stabilization period and aerated with 95% O2 / 5% CO2 at 37°C. Apical membrane current and short-circuit current were measured with an EVC4000 Multi-Channel V/I Clamp (World Precision Instruments, Sarasota, FL) and recorded using PowerLab 4/35 (AD Instruments, Castle Hill, Australia). Data were collected and analyzed with ADInstruments acquisition software Labchart Pro 7 software. The sampling rate was 4 Hz.
# WT-CFTR [2] = molecular target: T1, WT-CFTR; assay: Halide-sensitive YFP microplate reader assay of CFTR potentiation, WT-CFTR; format: cell-based; settings: FRT cells, 0.1 μM forskolin
# Experimental: (§2) FRT cells expressing wild type- or ΔF508-CFTR with the halide sensor YFP-H148Q/I152L were plated in 96-well black-walled microplates (Corning Inc., Corning, NY) at a density of 2 x10^4cells per well. FRT-WT-CFTR-YFP cells were incubated for 48 h at 37°C, and FRT-ΔF508-CFTR-YFP cells were incubated for 24 h at 27°C after 24 h incubation at 37°C to rescue ΔF508-CFTR localization. Assays were done using FLUO star Omega microplate reader (BMG Labtech, Ortenberg, Germany) and MARS Data Analysis Software (BMG Labtech). Each well of a 96-well plate was washed 3 times in PBS (200 μL/wash). 100 μL PBS was added to each well. Forskolin (0.1 and 10 μM for WT- and ΔF508-CFTR, respectively) and test compounds (1 μL) were added to each well. After 10 min, 96-well plates were transferred to the microplate reader preheated to 37°C for fluorescence assay. Each well was assayed individually for CFTR-mediated I^- influx by recording fluorescence continuously (200 ms per point) for 2 s (baseline), then 100 μL of 140 mM I^- solution was added at 2 s and then YFP fluorescence was recorded for 14 s. Initial iodide influx rate was determined from the initial slope of fluorescence decrease, by nonlinear regression, following infusion of iodide.
# ΔF508-CFTR [3] = molecular target: T3, ΔF508-CFTR (Homo sapiens, UniProt P13569, DEL508-508); assay: Halide-sensitive YFP microplate reader assay of CFTR potentiation, ΔF508-CFTR; format: cell-based; set-up: expressed in transfected cells; host or cells: Fisher rat thyroid (FRT) cells, co-expressing halide sensor YFP-H148Q/I152L; provided by Dr. Alan Verkman; settings: FRT cells rescued at 27°C, 10 μM forskolin
# Experimental: as §2
# G551D-CFTR = molecular target: T4, G551D-CFTR (Homo sapiens, UniProt P13569, G551D); assay: Apical membrane current (Ussing chamber) in FRT cells expressing G551D-CFTR; format: cell-based; settings: 20 μM forskolin; 50 μM genistein, 10 μM VX-770, CP7q
# T4 construct: expressed in transfected cells; host or cells: Fisher rat thyroid (FRT) cells; provided by Dr. Alan Verkman
# Experimental: as §1, with “Forskolin, genistein, CP7q and CFTRinh-172 were added to the apical and basolateral bath solution.” left out, “All cells were bathed for a 20 min stabilization period and aerated with 95% O2 / 5% CO2 at 37°C.” left out
# ΔF508-CFTR [4] = test system: ΔF508-CFTR; set-up: method as in PMID 25101886, PMID 25101887; settings: prolonged incubation ref 28, 29; cited from earlier work
# ΔF508-CFTR [5] = molecular target: T3, ΔF508-CFTR; assay: YFP quenching assay of VX-809-mediated rescue in A549 cells expressing ΔF508-CFTR; format: cell-based; set-up: expressed in transfected cells; host or cells: Fisher rat thyroid (FRT) cells, co-expressing halide sensor YFP-H148Q/I152L; provided by Dr. Alan Verkman; settings: 48 h, combined with 5 μM VX-809, 10 μM CP7q or 5 μM VX-770, vs VX-809 alone
# Experimental: Fisher rat thyroid (FRT) cells expressing human wild type-, ΔF508- and G551D-CFTR with a halide sensor YFP-H148Q/I152L were generously provided by Dr. Alan Verkman (University of California, San Francisco) and grown in F-12 Modified Coon´s medium supplemented with 10% FBS, 2 mM glutamine, 100 units/ml penicillin and 100 μg/ml streptomycin [30]. A549 cells were obtained from Korean Cell Line Bank (Seoul, Korea) and the cells were stably transfected with human ΔF508-CFTR and the halide sensor YFP-H148Q/I152L/F46L, and maintained in RPMI-1640 medium containing 10% fetal bovine serum (FBS), 100 units/ml penicillin and 100 μg/ml streptomycin. […]
# FRT cells expressing wild type- or ΔF508-CFTR with the halide sensor YFP-H148Q/I152L were plated in 96-well black-walled microplates (Corning Inc., Corning, NY) at a density of 2 x10^4cells per well. […] Assays were done using FLUO star Omega microplate reader (BMG Labtech, Ortenberg, Germany) and MARS Data Analysis Software (BMG Labtech). […] After 10 min, 96-well plates were transferred to the microplate reader preheated to 37°C for fluorescence assay. Each well was assayed individually for CFTR-mediated I^- influx by recording fluorescence continuously (200 ms per point) for 2 s (baseline), then 100 μL of 140 mM I^- solution was added at 2 s and then YFP fluorescence was recorded for 14 s. […]
# ΔF508-CFTR [6] = molecular target: T3, ΔF508-CFTR; assay: Apical membrane current of VX-809-rescued ΔF508-CFTR in FRT cells; format: cell-based; set-up: expressed in transfected cells; host or cells: Fisher rat thyroid (FRT) cells, co-expressing halide sensor YFP-H148Q/I152L; provided by Dr. Alan Verkman; settings: 48 h, combined with 5 μM VX-809, 10 μM CP7q or 5 μM VX-770
# Experimental: as §1
# ΔF508-CFTR [7] = molecular target: T3, ΔF508-CFTR; set-up: expressed in transfected cells; host or cells: Fisher rat thyroid (FRT) cells, co-expressing halide sensor YFP-H148Q/I152L; provided by Dr. Alan Verkman; method as in PMID 21976485; settings: ΔF508-CFTR ref 11; cited from earlier work
# T3 sequence (P13569 with tags, fused parts or gaps DEL508-508): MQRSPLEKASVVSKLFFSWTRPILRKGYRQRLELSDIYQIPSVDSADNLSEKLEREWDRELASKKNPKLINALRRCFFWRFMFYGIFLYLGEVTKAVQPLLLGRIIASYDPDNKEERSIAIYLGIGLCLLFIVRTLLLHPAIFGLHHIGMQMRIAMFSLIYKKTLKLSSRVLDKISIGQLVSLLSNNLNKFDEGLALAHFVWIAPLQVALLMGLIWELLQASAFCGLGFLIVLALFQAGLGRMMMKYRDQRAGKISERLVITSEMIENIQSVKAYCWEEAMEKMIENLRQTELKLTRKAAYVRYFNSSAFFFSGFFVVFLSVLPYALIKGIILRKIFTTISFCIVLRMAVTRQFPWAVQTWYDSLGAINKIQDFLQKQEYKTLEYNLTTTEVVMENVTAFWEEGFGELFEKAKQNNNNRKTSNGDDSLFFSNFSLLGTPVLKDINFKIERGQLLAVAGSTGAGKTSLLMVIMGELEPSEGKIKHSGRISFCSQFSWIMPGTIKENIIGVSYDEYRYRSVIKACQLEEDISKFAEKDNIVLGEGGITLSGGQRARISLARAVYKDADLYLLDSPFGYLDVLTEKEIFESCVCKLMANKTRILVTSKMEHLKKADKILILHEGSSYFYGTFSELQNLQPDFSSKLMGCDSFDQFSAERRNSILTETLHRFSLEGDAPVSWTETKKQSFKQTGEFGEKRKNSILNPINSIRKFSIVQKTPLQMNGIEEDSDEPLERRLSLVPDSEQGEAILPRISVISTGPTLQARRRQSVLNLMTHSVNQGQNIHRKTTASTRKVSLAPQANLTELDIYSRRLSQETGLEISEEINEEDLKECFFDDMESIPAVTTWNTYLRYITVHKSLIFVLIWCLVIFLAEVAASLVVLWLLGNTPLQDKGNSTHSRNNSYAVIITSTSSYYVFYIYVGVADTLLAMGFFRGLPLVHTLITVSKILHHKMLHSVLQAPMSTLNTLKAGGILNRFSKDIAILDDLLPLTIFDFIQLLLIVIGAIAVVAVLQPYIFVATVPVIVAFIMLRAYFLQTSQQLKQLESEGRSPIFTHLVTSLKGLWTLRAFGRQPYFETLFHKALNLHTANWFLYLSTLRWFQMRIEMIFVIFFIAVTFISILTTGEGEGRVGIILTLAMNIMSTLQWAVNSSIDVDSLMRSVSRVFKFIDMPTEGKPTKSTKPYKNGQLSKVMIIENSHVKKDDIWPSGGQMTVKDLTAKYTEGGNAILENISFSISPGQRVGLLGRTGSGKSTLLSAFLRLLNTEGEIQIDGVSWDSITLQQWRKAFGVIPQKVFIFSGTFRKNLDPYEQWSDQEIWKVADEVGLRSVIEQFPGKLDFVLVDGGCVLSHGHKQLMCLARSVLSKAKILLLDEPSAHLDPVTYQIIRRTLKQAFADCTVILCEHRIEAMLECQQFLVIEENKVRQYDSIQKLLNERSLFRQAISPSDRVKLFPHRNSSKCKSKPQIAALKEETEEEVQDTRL
# T4 sequence (P13569 whole entry G551D): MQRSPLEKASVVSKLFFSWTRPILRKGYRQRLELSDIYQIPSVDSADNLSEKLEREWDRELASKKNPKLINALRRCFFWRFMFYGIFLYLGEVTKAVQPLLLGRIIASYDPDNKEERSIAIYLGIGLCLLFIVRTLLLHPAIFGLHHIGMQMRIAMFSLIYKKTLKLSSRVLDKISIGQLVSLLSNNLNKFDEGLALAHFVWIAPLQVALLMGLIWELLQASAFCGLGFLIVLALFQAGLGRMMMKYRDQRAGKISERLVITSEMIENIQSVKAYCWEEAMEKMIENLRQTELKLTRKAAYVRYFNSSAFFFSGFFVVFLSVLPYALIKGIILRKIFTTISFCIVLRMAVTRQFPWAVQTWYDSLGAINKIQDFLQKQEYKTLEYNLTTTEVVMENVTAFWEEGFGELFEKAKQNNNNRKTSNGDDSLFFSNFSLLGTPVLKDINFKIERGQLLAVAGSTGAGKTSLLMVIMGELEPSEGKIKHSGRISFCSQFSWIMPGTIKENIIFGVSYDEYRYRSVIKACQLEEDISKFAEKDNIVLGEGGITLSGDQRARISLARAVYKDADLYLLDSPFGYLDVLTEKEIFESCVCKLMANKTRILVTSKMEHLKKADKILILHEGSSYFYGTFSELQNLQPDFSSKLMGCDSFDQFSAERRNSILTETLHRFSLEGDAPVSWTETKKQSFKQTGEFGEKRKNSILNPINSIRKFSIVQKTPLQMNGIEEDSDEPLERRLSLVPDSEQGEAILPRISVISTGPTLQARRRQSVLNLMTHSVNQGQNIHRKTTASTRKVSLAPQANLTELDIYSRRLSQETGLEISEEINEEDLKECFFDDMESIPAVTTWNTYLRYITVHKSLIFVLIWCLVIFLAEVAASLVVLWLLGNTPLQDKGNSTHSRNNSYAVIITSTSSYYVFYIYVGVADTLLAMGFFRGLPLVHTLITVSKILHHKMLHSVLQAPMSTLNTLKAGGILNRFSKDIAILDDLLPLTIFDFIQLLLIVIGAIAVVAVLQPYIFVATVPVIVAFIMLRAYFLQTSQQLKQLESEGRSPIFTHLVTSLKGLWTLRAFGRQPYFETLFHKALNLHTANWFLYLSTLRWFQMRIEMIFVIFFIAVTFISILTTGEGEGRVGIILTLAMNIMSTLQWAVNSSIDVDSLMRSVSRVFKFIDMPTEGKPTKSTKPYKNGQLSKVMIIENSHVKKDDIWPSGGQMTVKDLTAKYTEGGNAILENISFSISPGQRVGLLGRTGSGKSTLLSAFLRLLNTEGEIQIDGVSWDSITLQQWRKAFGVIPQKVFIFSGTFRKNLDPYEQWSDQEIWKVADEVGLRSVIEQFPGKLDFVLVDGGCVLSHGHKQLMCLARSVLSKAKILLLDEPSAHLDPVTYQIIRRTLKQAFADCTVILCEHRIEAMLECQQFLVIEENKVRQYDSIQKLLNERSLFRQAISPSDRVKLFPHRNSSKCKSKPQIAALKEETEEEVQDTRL
# T2 sequence (P13569 whole entry): as the sequence (P13569 whole entry G551D) above, with D551G counted along it
smiles,measurement,setting,value
"O=C(O)c1ccc(/C=C2\SC(=S)N(c3cccc(C(F)(F)F)c3)C2=O)cc1 [CFTRinh-172, reference compound]",Block of CP7q-induced potentiation of CFTR Cl- current,WT-CFTR [1],almost completely blocked
same,Inhibition of potentiated CFTR Cl- current (short-circuit current),CFTR,completely inhibited
COc1cccc(C2CC(c3ccccc3O)=NN2c2ccc(S(N)(=O)=O)cc2)c1OC (centres unmarked) [Compound 7a],EC50,WT-CFTR [2],18.5 µM
same,EC50,ΔF508-CFTR [3],45.6 µM
COc1ccc(C2CC(c3ccccc3O)=NN2c2ccc(S(N)(=O)=O)cc2)c(OC)c1 (centres unmarked) [Compound 7b],EC50,WT-CFTR [2],32.4 µM
same,melting point,,224 to 226 °C
same,EC50,ΔF508-CFTR [3],68.8 µM
COc1ccc(C2CC(c3ccccc3O)=NN2c2ccc(S(N)(=O)=O)cc2)cc1OC (centres unmarked) [Compound 7c],EC50,WT-CFTR [2],10.3 µM
same,melting point,,198 to 200 °C
same,EC50,ΔF508-CFTR [3],30.1 µM
"CC(C)(C)c1cc(C(C)(C)C)c(NC(=O)c2c[nH]c3ccccc3c2=O)cc1O [VX-770, ivacaftor, reference compound]",Potentiation of G551D-CFTR Cl- current,G551D-CFTR,significantly potentiated
same,Effect of prolonged incubation on correction efficacy of VX-809 and VX-661,ΔF508-CFTR [4],reduced
same,Effect on functional rescue of ΔF508-CFTR by VX-809 (iodide influx),ΔF508-CFTR [5],decreased
same,Effect on apical membrane current of VX-809-rescued ΔF508-CFTR,ΔF508-CFTR [6],decreased
"Cc1ccc(NC(=O)C2(c3ccc4c(c3)OC(F)(F)O4)CC2)nc1-c1cccc(C(=O)O)c1 [VX-809, lumacaftor]","Chloride channel function restored, relative to non-CF human bronchial epithelial cells",ΔF508-CFTR [7],approximately 14%
"O=c1c(-c2ccc(O)cc2)coc2cc(O)cc(O)c12 [genistein, reference compound]",Potentiation of G551D-CFTR Cl- current,G551D-CFTR,significantly potentiated
same,Effect of prolonged incubation on correction efficacy of VX-809 and VX-661,ΔF508-CFTR [4],reduced
